# Values quoted from earlier work in PMC3583338 (Clinical pharmacology and therapeutics, 2008).
# Tests used:
# [1] = system: OATP
# [2] = system: OATP1B3
# [3] = system: OATP1B1
# [4] = system: P-gp
smiles,measurement,setting,value
CC(C)c1nc(CN(C)C(=O)N[C@H](C(=O)N[C@@H](Cc2ccccc2)C[C@H](O)[C@H](Cc2ccccc2)NC(=O)OCc2cncs2)C(C)C)cs1 [ritonavir],inhibition of OATP-mediated fexofenadine transport,[1],13%
same,effect on OATP1B3,[2],little or no effect
same,effect on OATP1B1,[3],little or no effect
same,P-gp mRNA expression,[4],moderately induced
